Calls of active or inactive are those of the source. Rule as the data show it, for most assays here: actives have a measured EC50 and inactives only a lower limit.
Assays:
[1] = target: T1, Apoptotic protease-activating factor 1 (Homo sapiens, UniProt O14727); type: functional
T1 sequence (O14727 whole entry): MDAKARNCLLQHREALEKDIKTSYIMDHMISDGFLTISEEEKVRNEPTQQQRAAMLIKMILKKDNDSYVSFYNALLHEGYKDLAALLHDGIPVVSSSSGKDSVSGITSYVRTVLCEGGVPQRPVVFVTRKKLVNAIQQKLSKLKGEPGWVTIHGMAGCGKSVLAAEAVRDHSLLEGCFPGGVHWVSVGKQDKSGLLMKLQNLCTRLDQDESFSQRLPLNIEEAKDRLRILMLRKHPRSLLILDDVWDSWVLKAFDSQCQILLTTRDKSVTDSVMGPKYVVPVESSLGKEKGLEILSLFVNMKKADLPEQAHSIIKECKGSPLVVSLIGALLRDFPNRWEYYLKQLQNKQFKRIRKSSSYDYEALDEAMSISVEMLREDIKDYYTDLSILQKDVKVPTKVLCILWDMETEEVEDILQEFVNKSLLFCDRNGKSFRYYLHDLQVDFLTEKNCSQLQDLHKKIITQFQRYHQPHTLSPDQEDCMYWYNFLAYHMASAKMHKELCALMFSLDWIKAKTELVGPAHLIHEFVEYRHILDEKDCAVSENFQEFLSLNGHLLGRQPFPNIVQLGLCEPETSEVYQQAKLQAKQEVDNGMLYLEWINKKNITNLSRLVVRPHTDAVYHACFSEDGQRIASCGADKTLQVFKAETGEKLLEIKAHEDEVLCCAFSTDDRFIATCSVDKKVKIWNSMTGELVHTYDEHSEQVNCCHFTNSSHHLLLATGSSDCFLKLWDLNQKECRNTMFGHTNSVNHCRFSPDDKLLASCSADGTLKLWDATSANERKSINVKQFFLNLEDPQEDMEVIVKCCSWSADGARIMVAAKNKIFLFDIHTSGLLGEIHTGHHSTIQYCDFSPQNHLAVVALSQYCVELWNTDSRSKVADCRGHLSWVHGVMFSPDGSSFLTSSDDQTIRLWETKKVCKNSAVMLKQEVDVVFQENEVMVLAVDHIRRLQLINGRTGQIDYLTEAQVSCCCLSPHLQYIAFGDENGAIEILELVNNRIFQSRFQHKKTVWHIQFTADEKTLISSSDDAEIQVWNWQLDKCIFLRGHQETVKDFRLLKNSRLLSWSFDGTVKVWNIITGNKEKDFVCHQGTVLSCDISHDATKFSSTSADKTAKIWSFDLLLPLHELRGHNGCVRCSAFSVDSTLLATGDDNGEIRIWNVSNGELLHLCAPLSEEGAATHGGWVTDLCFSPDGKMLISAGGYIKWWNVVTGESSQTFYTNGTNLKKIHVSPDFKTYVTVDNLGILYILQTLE

[2] = target: T2, Replicative DNA helicase DnaB (Mycobacterium tuberculosis, UniProt P9WMR3); assay: DnaB intein splicing inhibitors, dose response, biochemical, cell-free fluorescence (AID 449749); type: functional
T2 sequence (P9WMR3 whole entry): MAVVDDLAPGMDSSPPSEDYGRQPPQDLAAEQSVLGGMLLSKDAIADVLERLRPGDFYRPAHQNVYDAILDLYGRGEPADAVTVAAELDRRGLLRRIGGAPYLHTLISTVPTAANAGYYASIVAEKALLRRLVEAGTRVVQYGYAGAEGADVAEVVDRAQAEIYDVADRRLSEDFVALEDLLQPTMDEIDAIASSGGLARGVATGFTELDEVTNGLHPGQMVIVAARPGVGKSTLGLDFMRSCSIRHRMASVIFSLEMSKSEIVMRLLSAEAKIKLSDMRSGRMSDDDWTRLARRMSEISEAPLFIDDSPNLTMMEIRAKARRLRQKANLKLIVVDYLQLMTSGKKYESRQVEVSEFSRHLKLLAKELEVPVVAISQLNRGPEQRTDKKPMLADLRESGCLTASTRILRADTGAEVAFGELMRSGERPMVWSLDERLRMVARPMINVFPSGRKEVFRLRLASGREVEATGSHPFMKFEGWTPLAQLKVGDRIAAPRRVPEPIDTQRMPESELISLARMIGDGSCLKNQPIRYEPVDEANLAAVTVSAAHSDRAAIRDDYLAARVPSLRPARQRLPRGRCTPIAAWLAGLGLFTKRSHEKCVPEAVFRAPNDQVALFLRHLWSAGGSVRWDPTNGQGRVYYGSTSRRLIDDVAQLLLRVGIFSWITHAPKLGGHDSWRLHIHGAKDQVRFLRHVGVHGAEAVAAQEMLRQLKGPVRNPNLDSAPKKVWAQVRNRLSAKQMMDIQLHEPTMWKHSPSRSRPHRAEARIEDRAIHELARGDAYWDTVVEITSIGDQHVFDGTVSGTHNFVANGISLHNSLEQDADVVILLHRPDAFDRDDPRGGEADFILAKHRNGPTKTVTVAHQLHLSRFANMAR

Protein RecA = target: T3, Protein RecA (Mycobacterium tuberculosis, UniProt P9WHJ3); assay: Fluorescence Cell-Free Homogeneous Dose Retest to Identify Inhibitors of RecA-Intein Splicing Activity. [Related pubchem assays (depositor defined):AID2097, AID2223, AID489010, AID492950]; type: functional
T3 sequence (P9WHJ3 whole entry): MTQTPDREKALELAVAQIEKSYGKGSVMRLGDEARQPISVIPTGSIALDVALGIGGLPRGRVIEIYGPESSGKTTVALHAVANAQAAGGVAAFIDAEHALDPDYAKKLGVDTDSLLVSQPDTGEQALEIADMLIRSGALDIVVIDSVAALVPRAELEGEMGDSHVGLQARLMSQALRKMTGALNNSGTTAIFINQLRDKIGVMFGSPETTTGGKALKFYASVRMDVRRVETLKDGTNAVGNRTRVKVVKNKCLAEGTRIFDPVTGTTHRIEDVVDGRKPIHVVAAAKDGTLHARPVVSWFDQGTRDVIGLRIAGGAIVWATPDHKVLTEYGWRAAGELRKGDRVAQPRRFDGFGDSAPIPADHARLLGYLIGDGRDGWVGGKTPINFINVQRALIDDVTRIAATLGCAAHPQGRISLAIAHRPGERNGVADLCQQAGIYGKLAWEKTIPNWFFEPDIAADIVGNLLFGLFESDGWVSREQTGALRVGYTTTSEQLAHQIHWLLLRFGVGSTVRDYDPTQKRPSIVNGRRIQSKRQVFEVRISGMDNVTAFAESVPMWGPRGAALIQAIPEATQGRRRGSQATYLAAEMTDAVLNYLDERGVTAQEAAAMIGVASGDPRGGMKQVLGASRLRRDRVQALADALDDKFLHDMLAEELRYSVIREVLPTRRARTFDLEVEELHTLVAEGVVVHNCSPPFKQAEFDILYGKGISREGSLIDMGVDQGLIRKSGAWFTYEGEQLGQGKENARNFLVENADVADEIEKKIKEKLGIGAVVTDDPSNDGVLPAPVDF

[3] = NIH-3T3 fibroblast cytotoxicity, dose response, cytotoxicity control, cell-based, fluorescence, Alamar Blue, secondary assay (AID 2327); type: functional;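 also: NIH-3T3 mouse fibroblasts cultured with fluconazole at 8 µg/mL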
[4] = fluconazole-exposed Candida albicans growth modulators – fluorescence, retest, confirmation (AID 2467); type: functional, cell-based

Row | Compound | IC50 [1] | AC50 [2] | EC50 (Protein RecA) | EC50 [3] | EC50 [4]
1 | O=C(N/N=C1\C/C(=N\NC(=O)c2ccncc2)c2ccccc21)c1ccncc1 | 12.8 µM (active) | 6.09 µM (active) | 0.732 µM (active) |  | 
2 | COc1ccc(-n2c3nc4ccccc4nc3c3c(=N)oc(C)nc32)cc1 | 19.1 µM (active) | > 120 µM (inactive) | > 380 µM (inactive) |  | 
3 | O=C(/C=C/c1cccs1)NC(=S)NNC(=O)c1ccccc1O |  |  |  | 35.5 µM (active) | > 38 µM (not active)
4 | CC(=O)N(Cc1ccc(F)cc1)C1=C(NCCc2ccccc2)C(=O)c2ccccc2C1=O | 7.39 µM (active) | 4.93 µM (active) | 1.42 µM (active) | 9.84 µM (inconclusive) | 0.785 µM (active)
5 | CCCCC(=O)NC(c1ccccc1)c1ccc2cccnc2c1O (stereo not given) |  |  |  | 19.9 µM (inconclusive) | 0.569 µM (active)
